The values below come from patent US12403159B2, “Therapeutic metal complexes and ligands and methods of making and using the same” (Oregon State University, priority 2017, dated 2025).

Data set [1] is described as follows: Elimination of CuATSM in urine. Conditions: in vivo. The text has this:
This crystallization and high melting point create issues with forming an orally-active CuATSM compound and prevents the use of solid dispersant methods to formulate the complex for oral delivery. As such, producing formulations having appropriate dosage limits of CuATSM remains a limitation in using this compound therapeutically, particularly in view of CuATSM's propensity to gradually crystalize out of matrices and form insoluble crystals. Large amounts of crystallized CuATSM passes into the bowels, and thereby contributes to gastrointestinal distress. […]
The low reduction potential or, phrased differently, the high copper affinity of the ATSM ligand for cupric ion (in the 2+ ionization state) prevents copper release in most tissues, but allows selective release of copper in hypoxic tissues or in cells with damaged mitochondrial electron transport chains; however, even slight modifications of the CuATSM compound (e.g., removing one or both methyl groups from the carbon atoms of the diimine functional groups) results in rapid copper release that can result in toxicity in SOD ALS models. […] See, for example, FIG. 3, which illustrates reduction (left) versus oxidation standard potentials (right) for ligand components (as determined in anhydrous DMSO). […]

Data set [2] in a line: Reduction versus oxidation standard potentials (anhydrous DMSO). The following applies: relative to CuPhMeTSM; FIG. 3. Type of data set: physicochemical. The text has this: The low reduction potential or, phrased differently, the high copper affinity of the ATSM ligand for cupric ion (in the 2+ ionization state) prevents copper release in most tissues, but allows selective release of copper in hypoxic tissues or in cells with damaged mitochondrial electron transport chains; however, even slight modifications of the CuATSM compound (e.g., removing one or both methyl groups from the carbon atoms of the diimine functional groups) results in rapid copper release that can result in toxicity in SOD ALS models. […] Continued treatment thus is necessary to provide sufficient copper for CCS to complete the maturation of Cu,Zn SOD. But, such continued treatment also has the potential to cause toxicity due to greater copper intake. Furthermore, given the negative reduction potential of CuATSM, it is very difficult to reduce, which is reflected in the slow efficacy in replenishing SOD and COX extending over weeks. As a consequence, the majority of CuATSM (e.g., >95%) is eliminated in urine with copper still bound. […] See, for example, FIG. 3, which illustrates reduction (left) versus oxidation standard potentials (right) for ligand components (as determined in anhydrous DMSO). […]

The test system of data set [3] is Cu,Zn SOD (human SOD). The data set can be described thus: Mass spectrometric assay of mature/immature SOD in CNS tissue of treated CCS×SOD^WT transgenic mice. The data set is classed as in vivo. Conditions: CSS×SOD^WT transgenic mice; for increase in mature SOD compared to untreated SOD^WT mice: FIG. 4. Here is the method: Tissue Preparation for SOD and Cytochrome c Oxidase assays—Whole brains and spinal cords were rapidly dissected from euthanized transgenic mice, immediately frozen in liquid nitrogen, and then stored at −80° C. until use. To prepare brain tissue for mass spectrometry or cytochrome c oxidase assay, frozen brains were first placed on a plate on top of a slab of dry ice so that the brittle frozen tissue could warm to a temperature that allowed sectioning with a razor blade (approx. −10° C.). Motor cortex and surrounding cerebrum was then sectioned to a thickness of approximately 1 mm with a razor blade. A 500 μm biopsy needle was used to isolate three ˜250 μg punches from each mouse tissue, which provided technical replicates for mass spectrometry and cytochrome c oxidase examples. Tissue punches were weighed using a Cahn 25 Automatic Electrobalance (Cerritos, CA, USA) with a sensitivity of ±0.1 μg. Tissue punches were homogenized for 12 seconds using a VWR Handheld cordless motorized homogenizer to a concentration of 5 μg tissue/μl of homogenization buffer. Homogenization buffer (made fresh daily) was 10 mM ammonium acetate, pH 5.0-5.1. For SOD measurements, 300 nM bovine SOD (Sigma) was added as an internal standard. The ratio of human SOD to the bovine SOD internal standard was used to calculate the concentration of human SOD detected in mouse tissue. After homogenizing, samples were centrifuged for 2 minutes at 16000×g at 4° C. in an Eppendorf 5415 R centrifuge to pellet cell debris. Supernatant was transferred to a clean tube for mass spectrometry or cytochrome c oxidase assays. […]
An LTQ-FT Ultra hybrid linear ion trap-Fourier transform ion cyclotron resonance mass spectrometer (Thermo, San Jose, Calif.) with a Finnigan Ion Max API source configured for electrospray ionization (ESI) in positive ion mode was used for all mass spectrometry experiments. All SOD quantitation was performed using the linear ion trap with scan range of 800 to 2000 m/z, which allowed for detection of SOD multiple charge states +9 through +13. […]
Data were quantified in a custom Matlab program. […]

Data set [4] has as its system G93A SOD×CCS mice. Kind of data set: Survival of G93A SOD×CCS mice under treatment. The data set is classed as in vivo. Here is the method: In this example, G93A SOD×CCS mice were treated with 50 mg/kg/day of CuPhMeTSM transdermally starting at 4 days of age. The compound was able to keep six G93A SOD×CCS mice alive for 300 days (n=6). Results are illustrated in FIG. 10.

For data set [5], the system named is cytochrome c oxidase. Kind of data set: Cytochrome c oxidase assay in brain and spinal cord of treated mice. Type of data set: in vivo. Conditions: brain (FIG. 7A) and spinal cord (FIG. 7B); dermally with DMSO, 50 mg/kg/day once daily from four days of age, measured at day 21. Here is the method: Tissue Preparation for SOD and Cytochrome c Oxidase assays—Whole brains and spinal cords were rapidly dissected from euthanized transgenic mice, immediately frozen in liquid nitrogen, and then stored at −80° C. until use. To prepare brain tissue for mass spectrometry or cytochrome c oxidase assay, frozen brains were first placed on a plate on top of a slab of dry ice so that the brittle frozen tissue could warm to a temperature that allowed sectioning with a razor blade (approx. −10° C.). Motor cortex and surrounding cerebrum was then sectioned to a thickness of approximately 1 mm with a razor blade. […] The ratio of human SOD to the bovine SOD internal standard was used to calculate the concentration of human SOD detected in mouse tissue. […]
Cytochrome c oxidase assay—The assay buffer included 30 uM reduced cytochrome c in 50 mM potassium phosphate buffer pH 7.0 containing 20 μM EDTA and 24 units/ml catalase. The final dilution of reduced cytochrome c stock should yield an absorbance at 550 nm of 0.7. […] To minimize interference from turbidity, the absorbance at 550 nm minus the absorbance at 580 nm was monitored. The change in absorbance was measured for one minute. Then, 2 μl of 100 mM sodium cyanide and the absorbance change was monitored for another 20 seconds. […]

Data set [6] deals with juvenile mice. The data set can be described thus: Effect of free ligands on growth of juvenile mice. Type of data set: in vivo. The source says: Another limitation is that the ATSM ligand component of the CuATSM complex is pharmacologically active in binding metals and thus can react in potentially undesirable side reactions.

On to `CN=C([S-])N/N=C(C)/C(C)=N/NC([S-])=NC.[Cu+2]` [CuATSM], for which the “fraction eliminated in urine with copper still bound” value in data set [1] is reported as more than 95%. Further, the “oxidation wave: oxidized more easily than CuPhMeTSM by” value in data set [2] is approximately 40 mV. Further, the “increase in mature SOD compared to untreated SOD^WT mice” value in data set [3] was 13 µM.
Take `CNC1=NN=C(C)C(c2ccccc2)=NN=C(NC)[S][Cu][S]1` [CuPhMeTSM, copper phenylmethylTSM]: in data set [3], the “increase in mature SOD compared to untreated SOD^WT mice” value turned out to be 60 µM. For the same compound, the “decrease in amount of immature SOD” value in data set [3] (FIG. 6) is reported as “decreased most”. Moreover, the “toxicity from the treatment” value in data set [4] (G93A SOD×CCS mice, 50 mg/kg/day transdermally from 4 days of age) was “no toxicity apparent”. In data set [4] (G93A SOD×CCS mice, 50 mg/kg/day transdermally from 4 days of age, n=6), the “time mice were kept alive” value was 300 days. In data set [4] (low expressing G93A SOD mice crossed to CCS overexpressing mice, 50 mg/kg/day after four days of age, FIG. 10), the “mice still alive after receiving treatment” value was “nine out of 11”. Also, the “increase in COX activity” value in data set [5] is “nearly twice the extent of CuATSM”.
As to `CN/C(S)=N/N=C/C=N/N=C(\S)NC` [GTSM], the “effect on growth of juvenile mice” value in data set [6] is listed as “significant delay in growth”.
The same measure, in the same setting: the entry for `CN/C(S)=N/N=C/C(C)=N/N=C(\S)NC` [PTSM] is “significant delay in growth”.
As for “copper 4-nitrophenylmethylTSM [nitro analog]”, the “increase in COX activity” value in data set [5] is “not as effective as the CuPhMeTSM embodiment”.
